Measured values taken from patent publication US20050250819A1 (priority 2004, published 2005).

System: Type III protein secretion of the chimeric SopE‘-’Bla polypeptide (SPI1 type III protein secretion system)
Experiment: Primary assay: Type III protein secretion of the chimeric SopE'-'Bla polypeptide by Salmonella enterica
Assay type: cell-based
Conditions: read-out: SopE IC50(μM)
Excerpt: Primary assay: Type III protein secretion of the chimeric SopE‘-’Bla polypeptide by Salmonella enterica. This procedure is a cell-based assay that measures the type III-dependent secretion by Salmonella enterica of a plasmid-encoded chimeric polypeptide whose synthesis can be regulated, and which is endowed with an enzymatic activity that can be monitored colorimetrically by hydrolysis of a substrate that is unable to penetrate into the bacterial cytoplasm within the time constraints of the reaction. Thus, the colormetric reaction is not influenced by SopE‘-’Bla polypeptide in the bacterial cytplasm. Instead, it effectively measures the amount of polypeptide that has been secreted from the S. enterica cytoplasm to the extracellular medium via type III system protein secretion.
The SopE‘-’Bla recombinant polypeptide consists of two functionally distinct domains spliced together. The N-terminus domain is encoded by a polynucleotide region specifying the signal for type III secretion of the SopE polypeptide of S. enterica, an effector of the SPI1 type III protein secretion system. The C-terminus domain of SopE‘-’Bla consists of a 263 amino acid peptide sequence that corresponds to the TEM-1 β-lactamase expressed by plasmid pBR322 but without its N-terminal signal sequence. The TEM-1 β-lactamase part of the SopE‘-’Bla chimeric polypeptide is used as a reporter enzyme. It is capable of hydrolyzing nitrocefin resulting in a product whose accumulation can be monitored by colorimetric detection. The secretion of the SopE‘-’Bla chimeric polypeptide from the cytoplasm to the extracellular medium is dependent on type III protein secretion.
For this procedure, cells grown under conditions known to favor a functional SPI1 secretion system are induced for expression of the SopE‘-’Bla protein and grown either in the presence or in the absence of putative inhibitors for determined time. Nitrocefin is then added to the various cultures and its hydrolysis are used for quantitation. An inhibitor of Type III protein secretion is generally a compound that reduces the signal of the enzymatic reaction by decreasing the amount of SopE‘-’Bla secreted into the extracellular medium.

How did the IC50 turn out when COc1ccc(/C=C(/NC(=O)c2ccc(-c3ccccc3)cc2)C(=O)N[C@@H](Cc2ccc(Cl)cc2)C(=O)O)cc1OC (stereo in doubt) [Compound 50, 2-[2-[(Biphenyl-4-carbonyl)amino]-3-(3,4-dimethoxyphenyl)acryloylamino]-3-(4-chlorophenyl)propionic acid] was run?
The IC50 was 79.4 µM.

For O=C(N[C@@H](Cc1ccc(Cl)cc1)C(=O)O)/C(=C\c1cccc(C(F)(F)F)c1)NC(=O)c1ccc(Cl)cc1 [Compound 27, (S)-2-[2-(4-Chlorobenzoylamino)-3-(3-trifluoromethylphenyl)acryloylamino]-3-(4-chlorophenyl)propionic acid], which IC50 is on record?
Its IC50 is 87 µM.

Which IC50 does the source give for O=C(O)C[C@H](Cc1ccc(Cl)cc1)NC(=O)/C(=C\c1ccc(-c2ccccc2)cc1)NC(=O)c1ccc(C(F)(F)F)cc1 [Compound 13, (S)-3-[3-Biphenyl-4-yl-2-(4-trifluoromethylbenzoylamino)acryloylamino]-4-(4-chlorophenyl)butyric acid] here?
Its IC50 is 5.2 µM.

How did the IC50 turn out when O=C(N/C(=C/c1cccc(C(F)(F)F)c1)C(=O)N1CCCCC1C(=O)O)c1ccc(C(F)(F)F)cc1 (centres unmarked) [Compound 118] was run?
The IC50 was 100 µM.

Which IC50 does the source give for O=C(N/C(=C/c1ccc(Cl)c(Cl)c1)C(=O)N1CCCCC1C(=O)O)c1ccc(-c2ccccc2)cc1 (centres unmarked) [Compound 107] here?
Its IC50 is 8 µM.

With CC(C)(S)C(NC(=O)/C(=C\c1cccc(C(F)(F)F)c1)NC(=O)c1ccc(-c2ccccc2)cc1)C(=O)O (centres unmarked) [Compound 95] as the compound, how does the IC50 read?
The IC50 was 14.1 µM.

For O=C(N[C@H](COCc1ccccc1)C(=O)O)/C(=C\c1ccc(C(F)(F)F)cc1)NC(=O)c1cc2ccccc2s1 [Compound 65, (R)-2-[2-[(Benzo[b]thiophene-2-carbonyl)amino]-3-(4-trifluoromethylphenyl)-acryloylamino]-3-benzyloxypropionic acid], which IC50 is on record?
The IC50 was 88 µM.

How did the IC50 turn out when O=C(NC(COCc1ccccc1)C(=O)O)/C(=C\c1cccc(Oc2ccc(Cl)cc2)c1)NC(=O)c1ccc(C(F)(F)F)cc1 (stereo in doubt) [Compound 31, (S)-3-Benzyloxy-2-[3-[3-(4-chlorophenoxy)phenyl]-2-(4-trifluoromethyl-benzoylamino)acryloylamino]propionic acid] was run?
The IC50 was 7.7 µM.

Which IC50 does the source give for O=C(N[C@@H](COCc1ccccc1)C(=O)O)/C(=C\c1ccc(Cl)c(Cl)c1)NC(=O)c1ccc(Cl)cc1 [Compound 29, (S)-3-Benzyloxy-2-[2-(4-chlorobenzoylamino)-3-(3,4-dichlorophenyl)-acryloylamino]propionic acid] here?
The IC50 was 70 µM.

For O=C(N[C@H](COCc1ccccc1)C(=O)O)/C(=C\c1ccc(-c2ccccc2)cc1)NC(=O)c1ccc(C(F)(F)F)cc1 [Compound 24, (R)-3-Benzyloxy-2-[3-biphenyl-4-yl-2-(4-trifluoromethylbenzoylamino)-acryloylamino]propionic acid], which IC50 is on record?
The IC50 was 12.5 µM.

Which IC50 does the source give for O=C(NN(Cc1ccc(OC(F)(F)F)cc1)C(=O)N[C@@H](CSCc1ccccc1)C(=O)O)c1ccc(C(F)(F)F)cc1 [Compound 11, 4-Trifluoromethylbenzoic acid-N′-[(4-trifluoromethoxyphenyl)methyl]-N′-[[[(2-benzylthio)-1-carboxyethyl]amino]carbonyl]hydrazide] here?
The IC50 was 49 µM.

COc1cccc(C(=O)N/C(=C/c2ccc(Cl)c(Cl)c2)C(=O)NC(Cc2ccc(Cl)cc2)C(=O)O)c1 (centres unmarked) [Compound 117] was tested. Which IC50 did it give?
The IC50 was 15.5 µM.

How did the IC50 turn out when O=C(N[C@H](Cc1ccc(Cl)cc1)C(=O)O)/C(=C\c1cccc(C(F)(F)F)c1)NC(=O)c1ccc(Cl)cc1 [Compound 28, (R)-2-[2-(4-Chlorobenzoylamino)-3-(3-trifluoromethylphenyl)acryloylamino]-3-(4-chlorophenyl)propionic acid] was run?
The IC50 was 86 µM.

CC(C)(S)C(NC(=O)/C(=C\c1cccc(Oc2ccccc2)c1)NC(=O)c1ccc(C(F)(F)F)cc1)C(=O)O (centres unmarked) [Compound 160] was tested. Which IC50 did it give?
Its IC50 is 16 µM.

O=C(NC(Cc1ccc(F)cc1)C(=O)O)/C(=C\c1cccc(C(F)(F)F)c1)NC(=O)c1ccc(-c2ccccc2)cc1 (centres unmarked) [Compound 71, 2-[2-[(Biphenyl-4-carbonyl)amino]-3-(3-trifluoromethylphenyl)acryloylamino]-3-(4-fluorophenyl)propionic acid] was tested. Which IC50 did it give?
The IC50 was 34.2 µM.

NC(=O)C[C@@H](NC(=O)/C(=C\c1ccc(Cl)c(Cl)c1)NC(=O)c1ccc(-c2ccccc2)cc1)C(=O)O [Compound 112] was tested. Which IC50 did it give?
Its IC50 is 16.6 µM.

Which IC50 does the source give for Cc1ccc(/C=C(/NC(=O)c2ccc(-c3ccccc3)cc2)C(=O)NC(C(=O)O)C(C)(C)S)o1 (centres unmarked) [Compound 94] here?
Its IC50 is 55.2 µM.

Which IC50 does the source give for O=C(NC(=Cc1cccc(C(F)(F)F)c1)C(=O)N1C(c2ccc(F)cc2)SC[C@H]1C(=O)O)c1ccc(-c2ccccc2)cc1 (stereo partly drawn) [Compound 61, (4R)-3-[2-[(Biphenyl-4-carbonyl)amino]-3-(3-trifluoromethylphenyl)acryloyl]-2-(4-fluorophenyl)thiazolidine-4-carboxylic acid] here?
Its IC50 is 3.7 µM.

With O=C(N[C@H](COCc1ccccc1)C(=O)O)/C(=C\c1ccc(Br)cc1)NC(=O)C1CCN(c2nccc(C(F)(F)F)n2)CC1 [Compound 80, (R)-3-Benzyloxy-2-(3-(4-bromophenyl)-2-{[1-(4-trifluoromethylpyrimidin-2-yl)-piperidine-4-carbonyl]amino}acryloylamino)propionic acid] as the compound, how does the IC50 read?
The IC50 was 38.5 µM.

O=C(NC(Cc1ccc(Cl)cc1)C(=O)O)/C(=C\c1cccc(C(F)(F)F)c1)CC(=O)c1ccc(-c2ccccc2)cc1 (centres unmarked) [Compound 4, 2-[2-(2-Biphenyl-4-yl-2-oxoethyl)-3-(3-trifluoromethylphenyl)acryloylamino]-3-(4-chlorophenyl)propionic acid] was tested. Which IC50 did it give?
The IC50 was 1.1 µM.

O=C(N[C@@H](Cc1ccc(Cl)cc1)C(=O)O)/C(=C\c1cccc(C(F)(F)F)c1)NC(=O)c1ccc(OC(F)(F)F)cc1 [Compound 37, (S)-3-(4-Chlorophenyl)-2-[2-(4-trifluoromethoxybenzoylamino)-3-(3-trifluoromethylphenyl)acryloylamino]propionic acid] was tested. Which IC50 did it give?
The IC50 was 25 µM.

With O=C(O)CCCCNC(=O)/C(=C\c1ccc(Cl)c(Cl)c1)NC(=O)c1ccc(-c2ccccc2)cc1 [Compound 113] as the compound, how does the IC50 read?
The IC50 was 14.5 µM.

Which IC50 does the source give for CC(C)(S)C(NC(=O)/C(=C\c1ccc(-c2ccccc2)cc1)NC(=O)c1ccc(-c2ccccc2)cc1)C(=O)O (centres unmarked) [Compound 126] here?
Its IC50 is 3 µM.

How did the IC50 turn out when O=C(N[C@@H](Cc1ccc(Cl)cc1)C(=O)O)/C(=C\c1cccc(C(F)(F)F)c1)NC(=O)C1CCN(c2nccc(C(F)(F)F)n2)CC1 [Compound 79, (S)-3-(4-Chlorophenyl)-2-(3-(3-trifluoromethylphenyl)-2-{[1-(4-trifluoromethyl-pyrimidin-2-yl)piperidine-4-carbonyl]amino}acryloylamino)propionic acid] was run?
Its IC50 is 25.9 µM.

How did the IC50 turn out when O=C(N[C@@H](CSCc1ccccc1)C(=O)O)/C(=C\c1ccc(Br)cc1)NC(=O)C1CCN(c2nccc(C(F)(F)F)n2)CC1 [Compound 81, (R)-3-Benzylsulfanyl-2-(3-(4-bromophenyl)-2-{[1-(4-trifluoromethylpyrimidin-2-yl)piperidine-4-carbonyl]amino}acryloylamino)propionic acid] was run?
The IC50 was 58.1 µM.

With O=C(N/C(=C/c1ccc(-c2ccccc2)cc1)C(=O)N1CCCCC1C(=O)O)c1ccc(C(F)(F)F)cc1 (centres unmarked) [Compound 147] as the compound, how does the IC50 read?
Its IC50 is 60 µM.

With Cn1cc(C(=O)N/C(=C/c2cccc(C(F)(F)F)c2)C(=O)N[C@H](COCc2ccccc2)C(=O)O)c2ccccc21 [Compound 70, (R)-3-Benzyloxy-2-[2-[(1-methyl-1H-indole-3-carbonyl)amino]-3-(3-trifluoromethylphenyl)acryloylamino]propionic acid] as the compound, how does the IC50 read?
The IC50 was 86.3 µM.

For O=C(N[C@@H](CSCc1ccccc1)C(=O)O)/C(=C\c1ccc(OCc2ccncc2)cc1)NC(=O)c1ccc(C(F)(F)F)cc1 [Compound 59, (R)-3-Benzylsulfanyl-2-[3-[4-(pyridin-4-yl-methoxy)phenyl]-2-(4-trifluoromethyl-benzoylamino)acryloylamino]propionic acid], which IC50 is on record?
Its IC50 is 73.4 µM.

O=C(NN(Cc1ccc(Oc2ccccc2)cc1)C(=O)N[C@@H](CSCc1ccccc1)C(=O)O)c1ccc(C(F)(F)F)cc1 [Compound 12, 4-Trifluoromethylbenzoic acid-N′-[(4-phenoxyphenyl)methyl]-N′-[[[(2-benzylthio)-1-carboxyethyl]amino]carbonyl]hydrazide] was tested. Which IC50 did it give?
Its IC50 is 12.5 µM.

With O=C(N[C@H](CSCc1ccccc1)C(=O)O)/C(=C\c1ccc(C(F)(F)F)cc1)NC(=O)c1cc2ccccc2s1 [Compound 64, (S)-2-[2-[(Benzo[b]thiophene-2-carbonyl)amino]-3-(4-trifluoromethylphenyl)-acryloylamino]-3-benzylsulfanylpropionic acid] as the compound, how does the IC50 read?
Its IC50 is 49.4 µM.

For O=C(O)CCCCNC(=O)/C(=C\c1cccc(C(F)(F)F)c1)NC(=O)c1ccc(-c2ccccc2)cc1 [Compound 99], which IC50 is on record?
The IC50 was 42 µM.

For CC(C)(S)C(NC(=O)/C(=C\c1ccc(Cl)c(Cl)c1)NC(=O)c1ccccc1)C(=O)O (centres unmarked) [Compound 115], which IC50 is on record?
Its IC50 is 61.6 µM.
